From PMC9072250 (Acta Pharmaceutica Sinica. B, 2021)
Where a name gives a salt, the structure may show the parent alone.

Columns and labels:
PDE6A = PDE6A versus PDE5A1; cited from earlier work
[1] = test system: monocrotaline-induced PAH rat model; assay: Monocrotaline-induced PAH rat model; type: in vivo, Wister rats; details: PAH rats, 10.0 mg/kg (po) daily for 3 weeks, positive control

Structure (SMILES)	IC50 potency against PDE6A relative to PDE5A1 (PDE6A)	mean pulmonary artery pressure (mPAP) [1]	right ventricle hypertrophy index (RVHI%) [1]	wall thickness percentage (WT%) [1]
CCCc1nn(C)c2c(=O)[nH]c(-c3cc(S(=O)(=O)N4CCN(C)CC4)ccc3OCC)nc12 [sildenafil]	5 fold	–	–	–
CCCc1nn(C)c2c(=O)[nH]c(-c3cc(S(=O)(=O)N4CCN(C)CC4)ccc3OCC)nc12 [sildenafil citrate]	–	decreased significantly	decreased significantly	decreased significantly
